Publication PMC6117563, “A structurally derived model of subunit‐dependent NMDA receptor function” (The Journal of Physiology, 2018)

What was measured:
[1] = target: T1, GluN1/GluN2A receptors (Rattus norvegicus, UniProt Q00959); assay: Least squares fitting of kinetic model to macroscopic currents from excised outside‐out patches (1 mM or 3 μM glutamate for 1 s); format: cell-based; settings: macroscopic fit
T1 construct: expressed in transfected cells; host or cells: HEK 293 cells
Experimental: (§1) Cells were transfected using FuGENE 6 (Roche Diagnostics, Basel, Switzerland) with cDNA encoding green fluorescent protein (GFP), wild type GluN1‐1a (GenBank accession numbers U11418 and U08261; hereafter GluN1), and GluN2A (D13211) and GluN2B (U11419) at a ratio of 5:1:1 (GFP:GluN1:GluN2); total cDNA was 0.2 mg ml^−1. All rat NMDA receptor subunit cDNAs were provided by Drs Heinemann (Salk Institute) and Nakanishi (Kyoto University). After transfection, the HEK cells were incubated for 12–24 h (timed to optimize observation of patches with a single active channel) in media supplemented with D,L‐2‐amino‐5‐phosphonovalerate (DL‐AP‐5) and 7‐chlorokynurenic acid (both at 200 μM) prior to patch clamp recordings.

[2] = target: T2, GluN1/GluN2AC1/GluN2BC2 triheteromeric receptors (Rattus norvegicus, UniProt P35439+Q00959+Q00960, A876H/F846L/G856D/H848F/K857R/M851T/M860L/Q845K/V861L); assay: Whole cell current recordings, ifenprodil block of peak current response to glutamate plus glycine in transfected HEK cells; format: cell-based; settings: 3 μM ifenprodil
T2 construct: expressed in transfected cells; host or cells: HEK 293 cells
T2 sequence (Q00960+Q00959 fused with the stated changes, other chains not shown): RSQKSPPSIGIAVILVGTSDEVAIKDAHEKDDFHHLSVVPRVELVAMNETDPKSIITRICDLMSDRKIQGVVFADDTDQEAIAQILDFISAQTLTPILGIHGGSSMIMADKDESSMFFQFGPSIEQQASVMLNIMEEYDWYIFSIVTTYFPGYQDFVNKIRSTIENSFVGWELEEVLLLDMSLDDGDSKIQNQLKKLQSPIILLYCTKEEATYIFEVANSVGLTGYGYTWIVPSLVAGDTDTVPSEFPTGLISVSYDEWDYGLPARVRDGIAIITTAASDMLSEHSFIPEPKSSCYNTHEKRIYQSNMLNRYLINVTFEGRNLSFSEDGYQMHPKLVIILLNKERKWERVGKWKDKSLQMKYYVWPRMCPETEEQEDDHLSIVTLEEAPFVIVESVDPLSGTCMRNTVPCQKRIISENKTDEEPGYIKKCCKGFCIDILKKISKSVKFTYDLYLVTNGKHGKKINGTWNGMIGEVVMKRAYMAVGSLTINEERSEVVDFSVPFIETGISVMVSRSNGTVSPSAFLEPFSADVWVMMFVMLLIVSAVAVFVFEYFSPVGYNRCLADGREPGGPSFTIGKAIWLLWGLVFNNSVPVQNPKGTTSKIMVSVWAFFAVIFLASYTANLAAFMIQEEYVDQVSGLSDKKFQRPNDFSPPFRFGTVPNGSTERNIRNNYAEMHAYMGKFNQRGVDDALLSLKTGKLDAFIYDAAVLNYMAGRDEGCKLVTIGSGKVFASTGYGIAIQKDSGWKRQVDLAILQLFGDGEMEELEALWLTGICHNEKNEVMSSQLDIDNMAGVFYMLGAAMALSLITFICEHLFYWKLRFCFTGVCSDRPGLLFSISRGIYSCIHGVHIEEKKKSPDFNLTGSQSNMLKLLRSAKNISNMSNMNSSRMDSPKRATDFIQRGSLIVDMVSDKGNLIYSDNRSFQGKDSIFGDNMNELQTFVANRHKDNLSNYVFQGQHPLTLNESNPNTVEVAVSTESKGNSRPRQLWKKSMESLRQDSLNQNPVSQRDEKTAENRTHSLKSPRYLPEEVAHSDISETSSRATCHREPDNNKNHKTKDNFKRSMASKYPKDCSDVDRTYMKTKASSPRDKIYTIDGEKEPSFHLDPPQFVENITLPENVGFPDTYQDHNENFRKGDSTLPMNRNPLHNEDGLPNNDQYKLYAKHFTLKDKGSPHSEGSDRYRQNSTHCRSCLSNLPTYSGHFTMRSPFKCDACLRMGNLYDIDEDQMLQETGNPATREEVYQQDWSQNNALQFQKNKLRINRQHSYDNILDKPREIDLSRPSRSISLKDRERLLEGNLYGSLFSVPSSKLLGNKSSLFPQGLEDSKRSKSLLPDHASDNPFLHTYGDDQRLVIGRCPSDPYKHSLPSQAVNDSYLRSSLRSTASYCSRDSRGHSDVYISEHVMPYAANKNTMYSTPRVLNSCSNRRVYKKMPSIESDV
Experimental: as §1
(§2) All GluN2 cDNAs used for whole cell current recordings encoded a fusion protein containing the GluN2A C‐terminal domain fused to coiled‐coil C1 and C2 peptide tags followed by an endoplasmic reticulum (ER) retention signal fused in frame to the C‐terminal. This allowed control of the stoichiometry of GluN2 in surface receptors, as previously described (Hansen et al. 2014). The vector containing GluN1 also independently expressed GFP and was provided by Dr Kasper Hansen (University of Montana). […]

[3] = system: GluN2AC1‐P552R/GluN2BC2‐P553R triheteromeric receptors; assay: Whole cell current recordings, ifenprodil block of peak current in transfected HEK cells; format: cell-based, rat; settings: 3 μM ifenprodil; n = 9
Experimental: as §1, §2

[4] = system: diheteromeric GluN1/GluN2BC2 receptors; design: method as in Hatton & Paoletti, 2005; Hansen et al. 2014; settings: 3 μM ifenprodil; ref Hatton & Paoletti, 2005; Hansen et al. 2014; cited from earlier work
[5] = target: T3, GluN2AC1‐P552R/GluN2BC2 triheteromeric receptors (Rattus norvegicus, UniProt P35439+Q00959+Q00960, A876H/F846L/G856D/H848F/K857R/M851T/M860L/Q845K/V861L); assay: Whole cell current recordings, ifenprodil block of peak current in transfected HEK cells; format: cell-based; settings: 3 μM ifenprodil; n = 9
T3 construct: expressed in transfected cells; host or cells: HEK 293 cells
T3 sequence (Q00960+Q00959 fused with the stated changes, other chains not shown): as above
Experimental: as §1, §2

[6] = target: T2, GluN1/GluN2AC1/GluN2BC2 triheteromeric receptors; design: method as in Hatton & Paoletti, 2005; Hansen et al. 2014; settings: 3 μM ifenprodil; ref Hatton & Paoletti, 2005; Hansen et al. 2014; cited from earlier work
[7] = model of Fig. A2 (opening only after all four pre‐gating steps)
[8] = model of Figs 5 and 6, saturating glycine (100 μM), pH 8.0

T1 sequence (Q00959 23-1464, other chains not shown): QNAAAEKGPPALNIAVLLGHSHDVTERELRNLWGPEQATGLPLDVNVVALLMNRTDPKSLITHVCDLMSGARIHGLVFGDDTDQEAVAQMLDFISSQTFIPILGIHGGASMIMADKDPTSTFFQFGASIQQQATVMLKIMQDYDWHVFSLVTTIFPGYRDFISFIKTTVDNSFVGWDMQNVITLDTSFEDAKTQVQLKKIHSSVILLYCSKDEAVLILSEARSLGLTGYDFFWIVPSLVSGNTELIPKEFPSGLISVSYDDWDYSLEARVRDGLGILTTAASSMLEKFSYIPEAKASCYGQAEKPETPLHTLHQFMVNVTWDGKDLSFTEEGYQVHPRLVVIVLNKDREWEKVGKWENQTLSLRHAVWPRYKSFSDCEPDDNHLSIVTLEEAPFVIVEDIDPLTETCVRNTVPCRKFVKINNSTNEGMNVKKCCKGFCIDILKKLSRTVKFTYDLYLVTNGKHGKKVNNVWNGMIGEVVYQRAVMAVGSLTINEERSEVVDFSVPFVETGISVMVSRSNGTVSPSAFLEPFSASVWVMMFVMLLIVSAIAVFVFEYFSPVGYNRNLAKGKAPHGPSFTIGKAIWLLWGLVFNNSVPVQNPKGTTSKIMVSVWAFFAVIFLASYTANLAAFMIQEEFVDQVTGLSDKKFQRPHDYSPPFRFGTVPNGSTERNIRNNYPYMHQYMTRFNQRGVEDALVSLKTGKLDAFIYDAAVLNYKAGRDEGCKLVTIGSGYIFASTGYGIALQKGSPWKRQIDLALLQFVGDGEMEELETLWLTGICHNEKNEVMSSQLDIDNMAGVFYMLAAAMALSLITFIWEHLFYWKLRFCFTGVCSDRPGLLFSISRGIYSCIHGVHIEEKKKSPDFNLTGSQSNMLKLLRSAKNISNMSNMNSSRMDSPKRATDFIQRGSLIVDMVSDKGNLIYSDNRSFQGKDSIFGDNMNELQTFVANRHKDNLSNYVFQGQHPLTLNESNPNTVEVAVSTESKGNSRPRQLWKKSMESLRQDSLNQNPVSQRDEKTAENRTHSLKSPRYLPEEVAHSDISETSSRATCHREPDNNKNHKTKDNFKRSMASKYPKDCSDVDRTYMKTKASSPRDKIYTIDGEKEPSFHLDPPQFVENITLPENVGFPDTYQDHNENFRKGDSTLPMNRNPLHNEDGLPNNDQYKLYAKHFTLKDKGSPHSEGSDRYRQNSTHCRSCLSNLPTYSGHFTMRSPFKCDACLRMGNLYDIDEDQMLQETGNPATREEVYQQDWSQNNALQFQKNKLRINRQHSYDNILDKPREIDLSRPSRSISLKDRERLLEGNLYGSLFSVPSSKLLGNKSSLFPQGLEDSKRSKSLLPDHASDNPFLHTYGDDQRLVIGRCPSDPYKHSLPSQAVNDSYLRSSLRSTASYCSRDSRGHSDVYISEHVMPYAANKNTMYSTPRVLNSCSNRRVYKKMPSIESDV

N[C@@H](CCC(=O)O)C(=O)O [glutamate]
glutamate association rate k +A [1, 7]: 1.3e+07 M⁻¹ s⁻¹ | glutamate dissociation rate k −A [1, 7]: 483 s⁻¹ | glutamate dissociation rate k −A [1, 8]: 65 s⁻¹ | microscopic glutamate association rate k +A [1, 8]: 6.7e+06 M⁻¹ s⁻¹

CC(C(O)c1ccc(O)cc1)N1CCC(Cc2ccccc2)CC1 (stereo not drawn) [ifenprodil]
block of the current amplitude [2]: 38% | reduction of peak current [3]: 43 ± 6.1% | expected reduction of peak current [4]: ~90% | reduction of peak current [5]: 58 ± 5.5% | expected reduction of triheteromeric peak current [6]: ~30%
